From ChEMBL document CHEMBL1157539, “Thousands of chemical starting points for antimalarial lead identification” (Nature, 2010) come the findings set out here.

The subject of this assay is Plasmodium falciparum. Nature of the assay: GSK_TCMDC: Inhibition of Plasmodium falciparum 3D7 in whole erythrocytes, using parasite LDH activity as an index of growth. The assay is classed as functional, organism-based. To be noted: Plasmodium falciparum, 3D7.

As for `CC(Cc1ccc(OCCOc2ccccc2)cc1)NCC(O)c1cccc(C(F)(F)F)c1` (stereo not given), the XC50 was found to be 968 nM. In the case of `COc1cccc(C=CC(=O)N(CCN)Cc2ccccc2)c1` it was 815 nM; in that of `Cc1ccc(NC(=O)c2ccc(CN3CCCN(Cc4cccc(Cl)c4)CC3)cc2)cc1C`, 1210 nM. In the case of `O=C(Nc1cccc(-c2cc(-c3c(Cl)cccc3Cl)no2)c1)c1cnc2ccccc2c1` it was 1100 nM; in that of `Cc1ccc(/C=C2/SC(=Nc3ccccc3)NC2=O)c(C)c1`, 557 nM; in that of `COc1cc(C)nc2ccc(NC(=O)c3cc([N+](=O)[O-])cc([N+](=O)[O-])c3)cc12`, 385 nM. In the case of `COc1cc(Nc2nccc(N3CCC(NC(=O)Nc4ccc5c(c4)OCO5)C3)n2)cc(OC)c1OC` (stereo not given) it was 761 nM; in that of `Oc1ccc(CCNc2nc(NCCCOc3ccccc3-c3cccnc3)nc(N3CCNCC3)n2)cc1`, 1040 nM; in that of `Cc1ccc(-n2ncc(C(=O)Nc3cc(Cl)cc(Cl)c3)c2C2CCNCC2)cc1C`, 551 nM. For the molecule `CNC(=O)c1cnc(Nc2ccc(N3CCN(C)CC3)cc2)nc1Nc1cccc(OC(C)C)c1`, the XC50 was 147 nM. In the case of `FC(F)(F)c1ccc2[nH]c(-c3ccc(-c4ccc(CNCCN5CCNCC5)cc4)s3)nc2c1` it was 910 nM; in that of `CCCNC(=O)Nc1ccc(N(C)c2ccnc(NC3CC3)n2)cc1`, 618 nM; in that of `O=C(Nc1n[nH]c2nc(-c3ccco3)c(Br)cc12)c1ccc(CN2CCCC2)cc1`, 791 nM.

`c1cc(C2=NC3CCCCC3N2)ccc1OCCCCCOc1ccc(C2=NC3CCCCC3N2)cc1` (stereo not given): the XC50 was found to be 228 nM. The molecule `Oc1cc(NC[C@@H]2CCC[C@@H]2NCc2ccc(Cl)c(Cl)c2)nc2ccccc12` gave an XC50 of 602 nM. As for `CC(Cc1ccc(CNC(=O)NCc2ccc(CC(C)NCCc3cccc(Cl)c3)cc2)cc1)NCCc1cccc(Cl)c1` (stereo not given), the XC50 was 685 nM. As for `CN(C)c1cc(NC(=O)Nc2ccccc2)c2ccccc2n1`, the XC50 stood at 405 nM. In the case of `CCc1ccc(NC(=O)N(CCCn2ccnc2)Cc2csc(-c3ccc(CNCc4ccccc4)cc3)n2)cc1` it was 757 nM; in that of `CC1CN(Cc2ccccc2)CCN1c1ccc(NC(=O)c2cccs2)cc1` (stereo not given), 276 nM; in that of `CCc1c[nH]c2c(N(c3ccccc3)S(C)(=O)=O)cc(C(=O)N[C@@H](Cc3ccccc3)[C@H](O)CNCc3cccc(C(F)(F)F)c3)cc12`, 997 nM.

Take `COc1cc2nc(NCCCO)nc(Nc3ccc(Oc4ccccc4)cc3)c2cc1OC`: the XC50 is 145 nM. In the case of `COc1ccc(-c2nc(-c3ccc([N+](=O)[O-])cc3)no2)cc1OC` it was 409 nM; in that of `CCN(CC1CCN(CC2(O)CCOCC2)CC1)c1cc(C)nc(Nc2ccc(Cl)cc2)n1`, 406 nM; in that of `Cc1cccc(CN2CCC(C(=O)Nc3ccc(-c4nc5ccccc5[nH]4)cc3)CC2)n1`, 919 nM. In the case of `CC(C)(C)NS(=O)(=O)c1cc(C(=O)N2CCC(CCN3CCC(O)(c4cccc(C(F)(F)F)c4)CC3)(c3cccc(F)c3)CC2)c(Cl)cc1F` it was 858 nM; in that of `CC(C)NCc1ccc(-c2ccc(NC(=O)c3cccc(Cl)c3)cc2)cc1`, 962 nM. `CC(Cc1ccc(OCCN2CCN(c3ccc(Cl)cc3)CC2)cc1)NCC(O)c1cccc(C(F)(F)F)c1` (stereo not given) came in with an XC50 of 807 nM. The molecule `CC(C)Oc1ccc(N2CCN(CCCCNC(=O)c3ccc(NC(=O)c4ccc(Cl)cc4)cc3)CC2)c(OC(C)C)c1` showed an XC50 of 512 nM.

In turn, `COc1cc2nc(N3CCC(CNC(=O)c4ccc(-c5ccc(O)cc5)cc4)CC3)nc(N)c2cc1OC` yielded an XC50 of 175 nM. `CCc1ccc(C2CCN(CCCCNC(=O)c3ccc(NC(=O)c4ccc(Cl)cc4)cc3)CC2)c(OC)c1` registered an XC50 of 785 nM. Molecule `COc1cc(C)nc2ccc(NC(=O)Nc3ccc([N+](=O)[O-])cc3C)cc12` registered an XC50 of 602 nM. For `COc1ccc(C2NCCc3c2[nH]c2ccccc32)cc1CN1CCN(c2ccc(F)cc2)CC1` (stereo not given), the XC50 was 776 nM.

Consider `CCCCCCn1c(Sc2ccc(C#N)c([N+](=O)[O-])c2)nnc1-c1cccs1`, for which the XC50 worked out at 706 nM.

With `Cc1cccc2nc(-c3ccc(-c4ccc(CN5CCC(N)C5)cc4)s3)[nH]c12` (stereo not given), the XC50 is 373 nM. In the case of `COc1cc2c(c(Cl)c1OC)CCN(Cc1ccccc1)CC2c1ccc(NC(=O)C(F)(F)F)cc1` (stereo not given), the XC50 amounted to 924 nM.

`c1ccc(Oc2ccc(Nc3ccnc4c(-c5ccccn5)cccc34)cc2)cc1` displayed an XC50 of 987 nM. In turn, `Cc1cccc(CNc2nc(C)cc(N[C@@H](Cc3ccccc3)C(=O)NCCOc3ccccc3)n2)c1` displayed an XC50 of 914 nM. In the case of `COc1ccc(C23Oc4cc(OC)cc(OC)c4C2(O)C2(CC3c3ccccc3)SCCCS2)cc1` (stereo not given) it was 124 nM; in that of `O=C(Nc1ccc(Br)cc1)N(CCN1CCOCC1)CC(O)COCc1ccc(F)cc1` (stereo not given), 1040 nM; in that of `Cc1cccc2nc(-c3cccc(-c4cccc(NC(=O)C5CC(=O)Nc6ccccc65)c4)c3)[nH]c12` (stereo not given), 64.6 nM. To `Cc1nc(O)c2c(ccc3ccc(CN(C)c4ccc(C(=O)N[C@@H](CCC(=O)O)C(=O)O)cc4)cc32)n1` belongs 879 nM; to `c1ccc2cc3c(NCCN4CCOCC4)ccnc3cc2c1`, 168 nM; to `Cc1cc2ncc(C(N)=O)c(Nc3ccc(N4CCOCC4)cc3)c2cc1S(C)(=O)=O`, 675 nM. In the case of `Oc1ccc(CCNc2nc(N/N=C/C=C/c3ccc(Cl)cc3)nc(N3CCNCC3)n2)cc1` it was 779 nM. `COc1ccc(N2CCN(CCc3ccc(NC(=O)c4ccc([N+](=O)[O-])cc4)cc3)CC2)c(OC)c1` registered an XC50 of 1170 nM. In the case of `COc1cccc(C(=O)Nc2ccc(Nc3nc(C)cc(N4CCCCC4)n3)cc2)c1OC` it was 1020 nM.

With `CCNc1cc(C(=O)N[C@@H](Cc2ccccc2)[C@H](O)CNCc2cccc(OC)c2)c(OC)c(N2CCCCS2(=O)=O)c1`, the XC50 was determined as 689 nM. In the case of `O=C(CSc1nc(-c2ccccc2Cl)ns1)Nc1cccc(F)c1` it was 1110 nM; in that of `CCCC(=O)Nc1ccc(OCCCCN(CC(C)(C)C)c2ccc(C#N)c(C(F)(F)F)c2)cc1`, 1350 nM.

On to `O=C(NCCc1ccccc1F)c1cc(Br)cc(N2CCN(c3ccncc3)CC2)c1`, for which the XC50 was found to be 756 nM. Turning to `Cc1cc(N(CCO)CCCN2CCCCC2)nc(Nc2ccc(Cl)cc2)n1`, the XC50 came out at 547 nM.

The molecule `COc1ccc2nccc([C@@H](O)CN3CCC(NCc4cc5c(F)ccc(F)c5[nH]4)CC3)c2n1` yielded an XC50 of 699 nM. To `COc1ccc(-c2nonc2NC(=O)c2cccc(C)c2)cc1OC` belongs 806 nM; to `O=C(Nc1ccc(-c2nc3ccc(NC(=O)c4ccc(Br)cc4)cc3[nH]2)cc1)c1ccc(Br)cc1`, 786 nM.

`O=C(Nc1nc2cc(S(=O)(=O)NCc3ccc(Cl)c(Cl)c3)ccc2n1CCCN1CCCC1)c1ccc(Cl)cc1` returned an XC50 of 939 nM. To `CCOc1cc(C(=O)NCCCN2CCCCC2C)ccc1-c1nc2cc(Cl)ccc2[nH]1` (stereo not given) belongs 1070 nM; to `O=C(/C=C/c1c(Cl)cccc1Cl)NC1CCC(CN2CCC(c3c[nH]c4ccncc34)CC2)CC1` (stereo not given), 158 nM; to `CC(C)(C)CC(C)(C)c1ccc(O)c(C(=O)Nc2cccc([N+](=O)[O-])c2)c1`, 589 nM.

Consider `Cc1ccc(CNC(=O)[C@H](Cc2ccccc2)Nc2cc(C)nc(NCCc3ccc(F)cc3)n2)cc1`, for which the XC50 was determined as 980 nM. The molecule `COc1ccc(CNCc2ccc(-c3ccc(-c4nc5ccccc5[nH]4)cc3)cc2)cc1` displayed an XC50 of 241 nM.
